# Reference: PubChem BioAssay AID588778 (Southern Research Institute, 2011)
# Calls of active or inactive are those of the source. How the calls were made is not given here.
# Test system: Vibrio cholerae motility, OD read-out
# Test: Vibrio cholerae motility inhibitors, OD read-out (AID 588778)
row,SMILES,IC50
1,CC(NC(=O)c1ccc([N+](=O)[O-])o1)C12CC3CC(CC(C3)C1)C2 (configuration not stated),3.3 µg/mL (inactive)
2,C=CCNC(=S)Nc1ccc(Cl)c(Cl)c1,26.4 µg/mL (inactive)
3,NC(=O)NNc1c2ccccc2nc2ccccc12,13 µg/mL (inactive)
4,O=[N+]([O-])c1nn(Cc2c(F)cccc2Cl)cc1Cl,1.4 µg/mL
5,COC(=O)c1sc2cc(NC(=S)NC(C)c3ccc4c(c3)OCO4)ccc2c1Cl (configuration not stated),46.8 µg/mL (inactive)
6,O=C(Oc1ccc(Cl)c2cccnc12)c1cccs1,12.8 µg/mL (inactive)
7,CC[n+]1c(/C=C/c2ccc(-c3ccc([N+](=O)[O-])cc3)o2)ccc2ccccc21,15.3 µg/mL (inactive)
8,O=C(N/C(=C/c1cccs1)c1nc2ccccc2[nH]1)c1cccs1,16.8 µg/mL (inactive)
9,Cc1ccc(OCCn2ccnc2)c(Cl)c1,25.9 µg/mL (inactive)
10,COC(=O)NC12CC3CC(CC(C3)C1)C2,16.4 µg/mL (inactive)
11,O=C1CC(Sc2ccccc2C(=O)O)C(=O)N1 (configuration not stated),8.99 µg/mL (inactive)
12,CC(=O)NC(=S)NNC(=O)c1ccc(-c2ccccc2)cc1,1.96 µg/mL (inactive)
13,Nc1nc(-c2ccccc2)cc(N2CCCCC2)n1,14.3 µg/mL (inactive)
14,Nc1nc(NC(=O)c2ccco2)nn1-c1ccccc1,11.3 µg/mL
15,FC(F)(F)c1ccccc1-n1c(-c2cccnc2)n[nH]c1=S,6.15 µg/mL (inactive)
16,O=[N+]([O-])c1nn(Cc2ccc(F)cc2)cc1Br,4.1 µg/mL
17,Cc1ccc(C)c(Nc2nc(NCCO)c3ccccc3n2)c1,6.87 µg/mL
